Data taken from ChEMBL document CHEMBL4425171, “Cholinesterase inhibitory activity of chlorophenoxy derivatives-Histamine H3 receptor ligands” (Bioorg Med Chem Lett, 2016).
Active and inactive are the calls of the source. The rule behind the calls is not given here.

Columns and labels:
Acetylcholinesterase = Acetylcholinesterase (Electrophorus electricus, UniProt O42275); test: Inhibition of electric eel AChE using acetylthiocholine iodide as substrate preincubated for 5 mins followed by substrate addition measured after 5 mins by Ellmans method
Cholinesterase [1] = biological target: T1, Cholinesterase (Equus caballus, UniProt P81908)
Description: Inhibition of equine serum BChE using butyrylthiocholine chloride as substrate preincubated for 5 mins followed by substrate addition measured after 5 mins by Ellmans method

[2] = biological target: Acetylcholinesterase (Electrophorus electricus) (UniProt O42275); test: Inhibition of electric eel AChE using acetylthiocholine iodide as substrate at 10 uM preincubated for 5 mins followed by substrate addition measured after 5 mins by Ellmans method
[3] = biological target: Cholinesterase (Equus caballus) (UniProt P81908); test: Inhibition of equine serum BChE using butyrylthiocholine chloride as substrate at 10 uM preincubated for 5 mins followed by substrate addition measured after 5 mins by Ellmans method
Histamine H3 receptor = Histamine H3 receptor (Homo sapiens, UniProt Q9Y5N1); test: biochemical
Description: Displacement of [3H]Nalpha-methylhistamine from human full length recombinant histamine H3 receptor expressed in HEK293 cell membranes after 90 mins by liquid scintillation counting method

[4] = biological target: Acetylcholinesterase (Electrophorus electricus) (UniProt O42275); test: Mixed-type inhibition of electric eel AChE using acetylthiocholine iodide as substrate at 5 to 20 uM by Lineweaver-Burk double reciprocal plot analysis
Cholinesterase [5] = biological target: T1, Cholinesterase; test: Inhibition of equine serum BChE using butyrylthiocholine chloride as substrate preincubated for 4.5 mins followed by substrate addition measured after 2.5 mins by Ellmans method
[6] = biological target: Acetylcholinesterase (Electrophorus electricus) (UniProt O42275); test: Mixed-type inhibition of electric eel AChE using acetylthiocholine iodide as substrate at 2 to 10 uM by Lineweaver-Burk double reciprocal plot analysis
[7] = biological target: Cholinesterase (Equus caballus) (UniProt P81908); test: Non-competitive inhibition of equine serum BChE using butyrylthiocholine chloride as substrate at 2 to 5 uM by Lineweaver-Burk double reciprocal plot analysis

Acetylcholinesterase (Electrophorus electricus), sequence (O42275 24-633 limits assumed): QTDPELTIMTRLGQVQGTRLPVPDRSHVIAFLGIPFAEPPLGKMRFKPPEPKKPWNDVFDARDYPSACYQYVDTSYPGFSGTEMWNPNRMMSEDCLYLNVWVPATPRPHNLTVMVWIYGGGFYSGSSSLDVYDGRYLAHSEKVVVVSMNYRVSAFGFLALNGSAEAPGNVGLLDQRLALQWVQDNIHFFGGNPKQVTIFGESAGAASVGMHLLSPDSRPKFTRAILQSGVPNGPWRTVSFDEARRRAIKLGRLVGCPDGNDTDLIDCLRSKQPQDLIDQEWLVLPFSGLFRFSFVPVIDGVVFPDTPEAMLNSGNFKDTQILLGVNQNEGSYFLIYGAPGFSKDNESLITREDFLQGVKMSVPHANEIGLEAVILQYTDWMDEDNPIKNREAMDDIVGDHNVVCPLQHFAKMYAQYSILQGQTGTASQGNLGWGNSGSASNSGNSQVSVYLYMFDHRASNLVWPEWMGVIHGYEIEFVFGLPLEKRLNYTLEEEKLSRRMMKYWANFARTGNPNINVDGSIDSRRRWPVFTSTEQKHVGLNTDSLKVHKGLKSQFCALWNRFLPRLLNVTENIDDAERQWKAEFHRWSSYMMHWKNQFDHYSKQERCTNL
Acetylcholinesterase, sequence (O42275 whole entry): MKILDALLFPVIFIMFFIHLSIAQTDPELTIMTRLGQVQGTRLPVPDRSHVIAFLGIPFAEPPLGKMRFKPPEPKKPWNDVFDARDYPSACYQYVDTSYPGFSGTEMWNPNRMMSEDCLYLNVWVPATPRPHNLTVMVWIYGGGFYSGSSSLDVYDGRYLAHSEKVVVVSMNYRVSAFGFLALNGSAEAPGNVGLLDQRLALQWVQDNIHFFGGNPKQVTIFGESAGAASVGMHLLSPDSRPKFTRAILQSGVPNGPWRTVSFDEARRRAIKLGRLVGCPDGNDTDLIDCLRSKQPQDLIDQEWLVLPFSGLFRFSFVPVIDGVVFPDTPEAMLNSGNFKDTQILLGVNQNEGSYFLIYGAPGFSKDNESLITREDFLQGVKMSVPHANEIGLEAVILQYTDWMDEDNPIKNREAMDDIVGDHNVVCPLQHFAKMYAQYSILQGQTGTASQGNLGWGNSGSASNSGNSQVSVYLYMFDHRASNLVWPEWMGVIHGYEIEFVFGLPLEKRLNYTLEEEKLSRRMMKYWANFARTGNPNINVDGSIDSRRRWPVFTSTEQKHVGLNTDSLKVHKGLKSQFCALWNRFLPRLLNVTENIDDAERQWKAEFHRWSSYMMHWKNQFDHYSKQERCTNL
Cholinesterase (Equus caballus), sequence (P81908 whole entry): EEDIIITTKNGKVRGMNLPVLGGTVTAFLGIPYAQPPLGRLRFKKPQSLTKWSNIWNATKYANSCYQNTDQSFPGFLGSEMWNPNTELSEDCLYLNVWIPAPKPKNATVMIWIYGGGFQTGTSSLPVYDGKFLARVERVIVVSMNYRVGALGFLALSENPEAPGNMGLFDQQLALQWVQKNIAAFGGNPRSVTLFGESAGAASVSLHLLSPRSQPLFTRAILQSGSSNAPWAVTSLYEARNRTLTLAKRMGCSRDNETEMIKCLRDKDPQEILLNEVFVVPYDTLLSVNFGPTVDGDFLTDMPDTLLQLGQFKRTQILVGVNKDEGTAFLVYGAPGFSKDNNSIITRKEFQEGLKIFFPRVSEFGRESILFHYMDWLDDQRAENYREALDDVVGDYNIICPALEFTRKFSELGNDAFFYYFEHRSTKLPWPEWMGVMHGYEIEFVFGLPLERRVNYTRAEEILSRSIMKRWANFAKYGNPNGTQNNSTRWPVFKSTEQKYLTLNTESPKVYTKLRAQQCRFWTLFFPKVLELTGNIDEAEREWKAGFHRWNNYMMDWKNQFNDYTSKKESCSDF
T1 sequence (P81908 whole entry): as above
Histamine H3 receptor, sequence (Q9Y5N1 whole entry): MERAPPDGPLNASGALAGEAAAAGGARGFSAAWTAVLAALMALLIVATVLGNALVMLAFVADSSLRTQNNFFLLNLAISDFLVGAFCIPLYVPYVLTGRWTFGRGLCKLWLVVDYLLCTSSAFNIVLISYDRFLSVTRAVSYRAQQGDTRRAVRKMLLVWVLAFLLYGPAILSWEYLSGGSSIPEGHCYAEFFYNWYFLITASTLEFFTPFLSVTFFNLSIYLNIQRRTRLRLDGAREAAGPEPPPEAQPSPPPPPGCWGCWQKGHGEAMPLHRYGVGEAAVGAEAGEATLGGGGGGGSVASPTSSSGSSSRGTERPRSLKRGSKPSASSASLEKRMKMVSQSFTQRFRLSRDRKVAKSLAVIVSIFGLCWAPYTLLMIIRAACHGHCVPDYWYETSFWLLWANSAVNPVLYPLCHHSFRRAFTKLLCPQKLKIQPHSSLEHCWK

| SMILES | IC50 (Acetylcholinesterase) | IC50 (Cholinesterase [1]) | inhibition [3] | also measured |
| --- | --- | --- | --- | --- |
| CC1CCN(CCCCCCCOc2ccc(Cl)cc2)CC1 | 2.74 µM | 2.92 µM | – | – |
| Clc1ccc(OCCCCCN2CCCCC2)cc1 | > 10 µM | > 10 µM | < 50% | inhibition [2]: < 50% |
| CC1CCCN(CCCCCCCOc2cccc(Cl)c2)C1 (stereo not given) | 3.8 µM | 5.15 µM | – | Ki (Histamine H3 receptor): 0.446 µM |
| CC1CCN(CCCCCOc2ccc(Cl)cc2)CC1 | > 10 µM | > 10 µM | < 50% | inhibition [2]: < 50% |
| Clc1cccc(OCCCCCCN2CCCCC2)c1 | 18.6 µM | > 10 µM | < 50% | – |
| Clc1ccc(OCCCCCCCN2CCCCC2)cc1 | 3.94 µM | > 10 µM | < 50% | – |
| CC1CCCN(CCCCCCCOc2ccc(Cl)cc2)C1 (stereo not given) | 4.51 µM | > 10 µM | < 50% | inhibition [4]: Active |
| c1cc2c(cc1OCCCN1CCCCC1)CN1CCCC1=N2 | – | – | – | IC50 (Cholinesterase [5]): 8.2 µM |
| Clc1ccc(OCCCCCCN2CCCCC2)cc1 | > 10 µM | > 10 µM | < 50% | inhibition [2]: < 50% |
| CC1CCN(CCCCCCOc2cccc(Cl)c2)CC1 | 7.31 µM | 3.53 µM | – | – |
| Clc1ccc(OCCCCCCCN2CCCCCC2)cc1 | 1.93 µM | 1.64 µM | – | inhibition [6]: Active; inhibition [7]: Active |
| CC1CCCN(CCCCCOc2ccc(Cl)cc2)C1 (stereo not given) | 23.6 µM | > 10 µM | < 50% | – |
| Clc1cccc(OCCCCCCCN2CCCCC2)c1 | 5.33 µM | 4.75 µM | – | – |
| Clc1ccc(OCCCCCCN2CCCCCC2)cc1 | 3.88 µM | 3.74 µM | – | – |
| Clc1ccc(OCCCCCN2CCCCCC2)cc1 | > 10 µM | 3.45 µM | – | inhibition [2]: < 50% |
| CC1CCN(CCCCCCOc2ccc(Cl)cc2)CC1 | 8.11 µM | 5.43 µM | – | – |
| CC1CCN(CCCCCCCOc2cccc(Cl)c2)CC1 | 4.9 µM | 1.66 µM | – | – |
| Clc1ccc(OCCCOCCCN2CCCCCC2)cc1 | 7.91 µM | 4.97 µM | – | – |
| CC1CCCN(CCCCCCOc2ccc(Cl)cc2)C1 (stereo not given) | 4.8 µM | > 10 µM | < 50% | – |
| CC1CCCN(CCCCCCOc2cccc(Cl)c2)C1 (stereo not given) | 6.22 µM | > 10 µM | < 50% | – |
| Clc1cccc(OCCCCCCCN2CCCCCC2)c1 | 2.42 µM | 0.9 µM | – | – |
| Clc1cccc(OCCCCCCN2CCCCCC2)c1 | 5.4 µM | 2.43 µM | – | – |
